Experiments:
[1] = test system: liver transplant patients with HE; test: Chart review of 39 liver transplant patients with HE Conn scores of 2; type: in vivo, human; conditions: 24 lactulose, 15 rifaximin
[2] = test system: patients with HE; test: Retrospective chart review of 145 patients with HE, lactulose then rifaximin; type: in vivo, human
Excerpt: Total number of hospitalizations, duration of hospitalizations, HE endpoints, and cost of therapy were compared between the 2 treatment regimens.

[3] = test system: patients with HE; conditions: 6-month study; rifaximin 1200 mg/day, neomycin 3 g/day; 14 days on, 14 days off per month; cited from earlier work

Molecule	hospitalizations reported for the group [1]	patients with Conn scores of 3 or 4 at end of treatment period [2]	efficacy in patients with HE, rifaximin versus neomycin [3]
OC[C@H]1O[C@@H](O[C@@H]2[C@@H](CO)OC(O)(CO)[C@H]2O)[C@H](O)[C@@H](O)[C@H]1O (mixture of isomers) [lactulose]	Nineteen	25%	
neomycin			comparable efficacy

From patent US12697326B2, “Methods of treating hepatic encephalopathy” (SALIX PHARMACEUTICALS, INC., priority 2008, dated 2026)
